Measured values as given in patent publication US6710075B2, “Therapeutic compounds and methods” (The Government of the State of Sarawak, Malaysia, priority 2000, dated 2004).
Where two headings read alike, the source gives them in different places.

What was measured:
[1] = tested on: Intercellular Adhesion Molecule-1 (ICAM-1); assay: IL-1-induced ICAM-1 surface expression by A549 cells (Delfia); assay type: cell-based, human; details: 24 hours, read-out: IC50 ICAM-1 Production
Text: (a) Compounds A and B were identified from a bark sample of Aglaia leptantha through their ability to inhibit production of Tumour Necrosis Factor-α (TNF-α) by THP-1 human promonocytic leukemia cells (Tsuchiya, et al, Int. J. Cancer, 1980, 26(2):171-6) activated with lipopolysaccharide (LPS). Table 4 summarises the results comparing the activity of Compounds A and B for inhibition of TNF-α production to their effects on general cell metabolism measured using WST-1 reduction, DNA synthesis and protein synthesis assays for THP-1 cells. […] For comparison, the effects of Compounds A and B on A549 lung epithelial carcinoma cells (Leiber et al, Int. J. Cancer, 1976, 17(1)-62-70) were also measured and the data is also included in Table 4.

A549 cells [2] = assay: Acute general protein biosynthesis inhibition, [14C] leucine incorporation, A549 cells; assay type: cell-based, human; details: 1 hour pretreatment + 2 hours label, read-out: IC50 Protein synthesis
K562 = assay: Cytostatic activity, relative cell number by YOYO-1 DNA dye; assay type: cell-based; details: Homo sapiens, 72 h; K562, leukemia; read-out: GI50 (3 day cultures)
Procedure: (§1) (b) Compound A was assessed for cytotoxic and cytostatic activity against a panel of cell lines derived from a variety of human tumour types in addition to THP-1 and A549 cells (Table 5). These included K562 leukemic cells (Lozzio and Lozzio, 1975, Blood 45:321-34), PC3 prostate tumour cells (Kaighn et al., 1979, Invest. Urol. 17:16-23) and SF268 glioblastoma cells (Westphal et al, 1985, Biochem. Biophys. Res. Commun., 132:284-9). […] However, the cytotoxic potency of Compound A increased dramatically after 6 days of culture for the K562, A549 and SF268 cells.

PC3 = assay: as above; assay type: cell-based; details: Homo sapiens, PC-3, 72 h; PC3, prostate; read-out: GI50 (3 day cultures)
Procedure: as §1

SF268 = assay: as above; assay type: cell-based; details: Homo sapiens, SF-268, 72 h; SF268, brain; read-out: GI50 (3 day cultures)
Procedure: as §1

[3] = tested on: HL60 human promyelocytic leukemic cells; assay: Monocytic differentiation, CD14 surface antigen expression by flow cytometry; assay type: cell-based; details: 4 days
Procedure: This is a morphology highly characteristic of mature macrophages and similar morphological effects were observed when the cells were treated with other known inducers of macrophage differentiation including interferon-γ (IFNγ) or phorbol 12-myristate 13-acetate (PMA). To investigate this further the effects of Compound A on HL60 human promyelocytic leukemic cells (Collins, et al, Nature, 1977, 270:347-9) were examined (Table 11). This widely used cell line is well characterised as a model of human myelomonocytic differentiation (Collins, Blood, 1987, 70(5):1233-44). In this experiment monocytic differentiation was quantitated by measuring CD14 surface antigen expression by flow cytometric analysis CD14, all LPS-binding protein, is expressed on the surface of cells of the myelomonocytic lineage and is normally expressed at very low levels in undifferentiated HL60 cells (Ferrero et al., Blood, 1983, 61(1):171-9).

A549 cells [4] = assay: DNA content analysis (cell cycle and viability) of A549 cells, 6 days; assay type: cell-based, human; details: A549, 10 nM
Procedure: A549 cells were cultured for 6 days with the indicated concentration of Compound A or 1 μM paclitaxel then collected and fixed in 70% ethanol prior to staining with propidium iodide and DNA content determined by flow cytometry. The numbers indicate the % of cells in the various cell cycle phases relative to all cells with ≧2N DNA content and also the % dead cells (ie. subdiploid≦2N cells) to the left of the marker that arose during the culture period.
To help identify a potential mechanism for the effects of Compound A, DNA content analysis was performed to determine where in the cell cycle it exerted its effect (FIG. 4). […] This contrasts to the effects of paclitaxel a drug known to act selectively at the G2/M phases of the cell cycle (FIG. 4). As the concentration of Compound A was increased and its cytotoxic effects became evident the proportion of cells in the S and G2/M phases decreased with a corresponding rise in cells in G0/G1 phases. […] Thus, compared to THP-1 cells (see FIG. 2) higher concentrations of Compound A are required to inhibit progression through the G0/G1 phases of the cell cycle in A549 cells.

A549 cells [5] = assay: Effect on cell cycle arrest and cell death induced by anti-cancer agents, DNA content analysis; assay type: cell-based
Procedure: A549 cells in 6 well plates were cultured for 3 days in the presence or absence of 10 nM Compound A together with 0.1 μM camptothecin, 10 μM vinblastin, 1 μM paclitaxel or 1 μM staurosporine as indicated. The cells were then collected and fixed in 70% ethanol prior to staining with propidium iodide and DNA content determined by flow cytometry. The numbers indicate the % of cells in the various cell cycle phases relative to all cells with ≧2N DNA content and also the % dead cells (ie. subdiploid ≦2N cells) to the left of the dotted marker that arose during the culture period.
This was examined in more detail using DNA content analysis to specifically measure cell cycle progression and cell death. In this experiment in addition to camptothecin and paclitaxel cells were also treated with vinblastin (another microtubule inhibitor) (Sorger et al., 1997, supra) and staurosporine (a kinase inhibitor) (Gescher, Crit Rev Oncol Hematol., 2000, 34(2):127-35).

A549 cells [6] = assay: Relative cell size by forward light scatter (flow cytometry); assay type: cell-based, human; details: for % increase in mean cell volume: six days
Procedure: It is well known that cell proliferation and cell growth reflected as increased mass of individual cells are biochemically separable processes (Pardee, Science, 1989, 246:603-8). Although at certain concentrations Compound A can inhibit cell proliferation without overt cytotoxicity it was also evaluated whether Compound A also affected cell growth. For these experiments A549 cells were treated with various non-cytotoxic doses of Compound A up to 10 nM and the relative cell size determined after 6 days of culture by measuring forward light scatter using a flow cytometer. […] This occurred only at concentrations which are cytostatic for this cell type.

[7] = Body weight in the mouse xenograft tumour model; assay type: in vivo
Procedure: The ability of Compound A to inhibit growth of human tumour cells in vivo was assessed using male athymic mice injected subcutaneously in the dorsal flank region with 2×10^6 PC3 human prostate tumour cells. Compound A administration (3 mg/kg) by intraperitoneal injection commenced after eight days once the PC3 tumour was palpable and continued three times a week until 29 days after the initial inoculation of the tumour cells. At this time all mice were killed and tumours excised and weighed.

Structure (SMILES): COC(=O)[C@H]1[C@@H](O)[C@@]2(O)c3c(OC)cc(OC4OC(C(O)CO)COC4OC)cc3O[C@@]2(c2ccc(OC)cc2)[C@@H]1c1ccccc1 (single isomer, unassigned) [Compound A]
- IC50 [1]: 2000 nM
- IC50 (A549 cells [2]; A549 cells): 32 nM
- IC50 (A549 cells [2]; Homo sapiens, A549, A549 cells): ~30 nM
- GI50 (K562): 1 nM
- GI50 (PC3): 5 nM
- GI50 (SF268): 3 nM
- % cells expressing CD14 ([3]; HL60, 5 nM): 3.3%
- % cells expressing CD14 ([3]; HL60, 10 nM): 5.7%
- % cells expressing CD14 ([3]; HL60, 25 nM): 46.0%
- % cells expressing CD14 ([3]; HL60, 50 nM): 43.0%
- CD14 expression in viable HL60 cells ([3]; doses greater than 10 nM): significantly enhanced CD14 expression
- cell cycle distribution (A549 cells [4]): a minor decline in the proportion of cells in the G0/G1 phases of the cell cycle with a concomitant increase in cells in the G2/M phases
- cell cycle distribution and cell death (A549 cells [5]; A549, 10 nM Compound A alone, three days): a minor decrease in cells in G0/G1 with a slight increase in G2/M phase cells with no detectable increase in cell death
- effect on cytotoxicity of staurosporine (A549 cells [5]; A549, 10 nM Compound A with 1 μM staurosporine, 3 days): little effect on the cytotoxic effects of staurosporine
- effect on cell cycle arrest and cytotoxicity of camptothecin, vinblastin and paclitaxel (A549 cells [5]; A549, 10 nM Compound A, 3 days): prevented their characteristic cell cycle arrest and significantly inhibited their cytotoxic effects
- % increase in mean cell volume (A549 cells [6]; A549, 2.5 nM): 10.4%
- % increase in mean cell volume (A549 cells [6]; A549, 5.0 nM): 10.7%
- % increase in mean cell volume (A549 cells [6]; A549, 10.0 nM): 22.4%
- increase in the mean forward scatter (A549 cells [6]; A549, non-cytotoxic doses up to 10 nM, 6 days): over 20%
- body weight ([7]; 3 mg/kg intraperitoneal three times a week, vs control): unaffected
- decrease in mean body weight ([7]; over the duration of the experiment, similar in control group): ~12%
